# Measured values published in US20090042993A1, “IDENTIFICATION OF NOVEL POST-TRANSLATIONAL PROTEIN MODIFICATIONS” (priority 2007, published 2009).
# Experiments:
# BACE1 = BACE1 lysine acetylation (immunoprecipitation, anti-acetylated lysine blot, LC-MS/MS mapping) in CHO cells; assay type: cell-based, human
# Protocol: Chinese Hamster Ovary (CHO) cells were grown in DMEM (Gibco BRL—Invitrogen, Carlsbad, Calif.) supplemented with 10% fetal bovine serum (FBS) and penicillin/streptomycin (Mediatech, Inc., Herndon, Va.) as described before (Puglielli et al., 2001, Nat. Cell Biol. 3: 905-912; Puglielli et al., 2003, J. Biol. Chem. 278: 19777-19783; Costantini et al., 2005, Biochem. J. 391: 59-67; Costantini et al., 2006, EMBO J. 25: 1997-2006). Cells were maintained in a humidified atmosphere with 5% CO2. For ceramide treatment, C6-ceramide (also simply called ceramide herein) was administered at the final concentration of 10 μM; treatment was started when cells were ˜30% confluent and carried out for 4 days, unless specified otherwise. Treatment with proteasome inhibitors MG-132 (5 μM) and lactacystin (10 μM) was done for 10 hours, as described earlier (Qing et al., 2004, FASEB J. 18: 1571-1573).
# For the immunoprecipitation of BACE1, cell lysates were pre-cleared with BioMag Protein A (Polysciences, Inc., Warrington, Pa.); beads were used at the concentration of 15 μl of the slurry per sample and separated with a magnetic holder. BACE1 was then immunoprecipitated with anti-BACE1 antibodies overnight and recovered with BioMag Protein A as above. The immunoprecipitate-bead complexes were washed 3 times in PBS and boiled for 10 min in SDS sample buffer (Invitrogen) with β-mercaptoethanol. Beads were then separated and the samples were analyzed by reducing SDS-PAGE.
# BACE1-myc was purified via affinity chromatography on a ProFound c-Myc-Tag IP/Co-IP kit (Pierce). Each BACE1 preparation was then precipitated by addition of 4 volumes of acetone, pelletted by centrifugation, washed, and vacuum-dried. […]
# A portion of each purified digest, corresponding to 10 μg of pre-digested protein, was analyzed by μLC-MS/MS using a Micromass Q-TOF2 spectrometer to locate acetylation sites. […] Charge dependent collision energy profiles were empirically pre-determined. […]
# [1] = system: acetyl-CoA:lysine acetyltransferase activity in ER vesicles; test: Membrane acetyltransferase activity, in vitro acetylation of BACE1-myc by ER vesicles; assay type: biochemical, Chinese Hamster; conditions: vesicles from control or ceramide-treated cells, 0.2% Triton X-100, 30° C.
# Source text: Intact vesicles from the endoplasmic reticulum (ER) and the Golgi apparatus were purified on a 10-34% Iodixanol (OptiPrep; Axis-Shield, Norway) continuous gradient as described (Puglielli et al., 2001, Nat. Cell Biol. 3: 905-912). The complete migration of subcellular markers in a typical gradient is shown in Costantini et al., 2006, EMBO J. 25: 1997-2006; Puglielli et al., 2001, Nat. Cell Biol. 3: 905-912. Fractions enriched in ER and Golgi markers (also called ER or Golgi vesicles herein) were separated, pooled together, and resuspended in isotonic/cryogenic buffer (0.25 M sucrose and 10 mM Tris-HCl, pH 7.4) in the presence of protease inhibitors (Roche). Latency of ER and Golgi vesicles was determined with the glucose-6-phosphatase (Clairmont et al., 1992, J. Biol. Chem. 267: 3983-3900) and the sialyl-transferase (Puglielli and Hirschberg, 1999, J. Biol. Chem. 274: 35596-35600) methods, respectively. […]
# The reaction was stopped by adding 200 μl of ice-cold buffer and immediate immersion in ice; BACE1 was then immunoprecipitated and counted on a liquid scintillation counter. […]
# FIG. 6 illustrates how acetyltransferase and deacetylase activities exist in the lumen of ER and Golgi apparatus, respectively. […] The reaction was stopped by lowering the temperature; BACE1 was then purified again and analyzed on a scintillation liquid counter. […]
smiles,measurement,setting,value
"CCCCCCCCCCCCC/C=C/[C@@H](O)[C@H](CO)NC(=O)CCCCC [ceramide, C6-ceramide]",acetylation of BACE1Ala in vivo,BACE1; CHO cells stably expressing BACE1Ala grown with ceramide,did not induce acetylation
same,number of acetylated lysine residues of BACE1,"BACE1; MS/MS of tryptic digests, two residues acetylated prior to ceramide treatment",increased to seven
same,BACE1 acetylation,BACE1; ceramide treatment of cells,stimulates BACE1 acetylation
same,in vitro acetylation of BACE1 by ER membrane vesicles,[1],no apparent difference
